Where two headings read alike, the source gives them in different places.
Experiments:
S. agalactiae NEM316 WT [1] = experiment: Minimal Inhibitory Concentration (MIC) assay, absence of colistin; assay type: cell-based; settings: Streptococcus agalactiae, NEM316WT
DltA enzyme = molecular target: T1, DltA enzyme (Streptococcus agalactiae serotype III, UniProt Q8VM67); experiment: DltA HTS assays (luminescent / fluorescent), inhibition of DltA enzymatic activity in vitro; assay type: biochemical, S. agalactiae; settings: Table 1; DltA inhibition, HTS assays of method 1; read-out: IC50
T1 construct: His-tag (from pET100 vector) (N); made in house; host or cells: E. coli BL21 (DE3) Star
T1 sequence (Q8VM67 1-511): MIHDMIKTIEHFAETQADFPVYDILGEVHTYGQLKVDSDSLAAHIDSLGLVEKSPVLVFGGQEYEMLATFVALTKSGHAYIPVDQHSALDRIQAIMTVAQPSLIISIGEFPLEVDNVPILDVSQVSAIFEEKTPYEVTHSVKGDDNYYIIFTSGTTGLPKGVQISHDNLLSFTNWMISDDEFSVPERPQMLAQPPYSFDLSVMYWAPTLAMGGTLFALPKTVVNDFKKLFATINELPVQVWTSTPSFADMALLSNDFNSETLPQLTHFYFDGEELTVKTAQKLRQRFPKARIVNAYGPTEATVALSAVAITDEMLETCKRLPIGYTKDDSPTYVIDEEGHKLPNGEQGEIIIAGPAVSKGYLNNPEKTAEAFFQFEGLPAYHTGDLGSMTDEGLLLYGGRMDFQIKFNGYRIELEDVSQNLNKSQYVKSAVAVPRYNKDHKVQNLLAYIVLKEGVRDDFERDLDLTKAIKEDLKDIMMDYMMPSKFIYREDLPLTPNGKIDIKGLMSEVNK
Description: The compounds effect on DltA enzyme has been based on the measure of the inhibition of DltA activity in vitro.
To this end, a recombinant protein Dlta was expressed and purified after cloning of the gene of S. agalatiae as described below:
Methods 1: DltA HTS Assays
The assay described below makes use of dithiothreitol (DTT) instead of DltC as reactive thiol in the catalyzed reaction. In fact, the inventors have shown that DTT, but also Coenzyme A and N-Acetylcysteamine are all thiols able to replace efficiently DltC. In addition, contrary to the prior art, radioactivity is not used: all the assays are based either on luminescent ATP detection, or on fluorescent AMP detection. They are easily amenable to miniaturized formats and fast readouts as required by HTS.
The assay buffer “AB” contains 50 mM Hepes pH8.0, 10 mM MgCl2, 50 mM KCl, 0.012% Triton-X100. The following components are added in a white polystyrene Costar plate up to a final volume of 30 μL: 3 μL DMSO, or inhibitor dissolved in DMSO and 27 μL DltA enzyme and DTT in AB. After 30 min of pre-incubation at room temperature, 30 μL of Substrates mix in AB are added in each well to a final volume of 60 μL. This reaction mixture is then composed of 10 nM DltA (produced in house from S. agalactiae), 0.5 mM D-Alanine (Sigma), 0.5 μM ATP (Sigma) and 1 mM DTT (Biochemika) in assay buffer. After 90 min of incubation at room temperature, 30 μL of the revelation mix are added to a final volume of 90 μL, including the following constituents at the respective final concentrations: 2 nM luciferase (Sigma), 30 μM D-luciferin (Sigma), 100 μM N-acetylcysteamine (Aldrich). Luminescence intensity is immediately measured on an Analyst-HT (Molecular Devices) and converted into inhibition percentages. For IC50 (Inhibitory Concentration 50%) determinations, the inhibitor is added at 6 to 10 different concentrations, and the related inhibitions are fitted to a classical langmuir equilibrium model using XLFIT (IDBS).
The assay buffer “AB” contains 50 mM Hepes pH8.0, 10 mM MgCl2, 50 mM KCl, 0.012% Triton-X100. The following components are added in a black polystyrene Costar plate up to a final volume of 50 μL: 5 μL DMSO, or inhibitor dissolved in DMSO and 45 μL DltA enzyme and DTT in AB. After 30 min of pre-incubation at room temperature, 50 μL of Substrates-revelation mix in AB are added in each well to a final volume of 100 μL. This reaction mixture is then composed of 5 nM DltA (produced in house from S. agalactiae), 0.5 mM D-Alanine (Sigma), 10 μM ATP (Sigma), 1 mM DTT (Biochemika), 10 nM Adenylate kinase (produced in house), 5 u/mL Pyruvate Kinase (Sigma), 50 μM phosphoenolpyruvate (Sigma), 5 u/mL Lactate deshydrogenase (Sigma) and 3 μM NADH (Sigma) in assay buffer. Fluorescence intensity of NADH (λex=360 nm, λem=520 nm) is immediately measured kinetically by a Fluostar Optima (BMG). Inhibition percentages are derived from fitted initial velocities. For IC50 determinations, the inhibitor is added at 6 to 10 different concentrations, and the related inhibitions are fitted to a classical langmuir equilibrium model using XLFIT (IDBS). FIG. 2 represents the data obtained using this method.
The capacity of compounds to inhibit DltA enzymatic activity was assessed using the DltA HTS assays described in method 1.

S. agalactiae NEM316 WT [2] = experiment: Minimal Antivirulent Concentration (MAC) assay, sensitization of bacteria to colistin; assay type: cell-based; settings: S. agalactiae wt strain, in presence of colistin 32 μg/ml, overnight, no visible growth
Description: The readout of the assay is called Minimum antivirulent concentration (MAC) and represents the minimal dose of compound for which no visible bacterial growth is observed in the presence of colistin at a subinhibitory concentration. MAC assay is described in Method 3 hereinafter.
Method 3: Assay for Minimal Antivirulent Concentration (MAC) and Minimal Inhibitory Concentration (MIC): Determination of Compounds Activity for Sensitization of Bacteria to Cationic Peptide (Colistin)
The Gram positive bacteria S. agalactiae NEM316 WT are grown on tryptic soy agar (TSA) broth over-night at 37° C. with air enriched with 5% CO2. Ten to fifteen colonies isolated from over-night growth on agar are then added to 10 ml of TS media to produce a standard suspension of organisms. This pre-culture is incubated at 37° C. with constant shaking during two to three hours to reach the exponential phase. This suspension is diluted to obtain a final inoculum of 1E+04 CFU/ml. Viable counts are obtained by plating 10 to 1000-fold dilutions of the suspension on TSA.
According to our standardized conditions, the final volume in the well is 100 μl in a 96-well microplate. Compounds are tested in a range of 1 to 32 μg/mL. Each well contains 2 μl of compound diluted in 100% DMSO, 48 μl of TS (microplate without colistin) or 48 μl of colistin in TS (final concentration of colistin is 32 μg/ml for S. agalactiae), then […] (final inoculum of 1 E+04 CFU/ml). Final concentration of DMSO is 2%. Positive growth control wells for each organism are prepared with and without colistin and DMSO 2% final concentration. S. agalactiae NEM316 Δdlt is used in control wells to verify the effect of the colistin on a sensitive strain.
The microplates are then incubated overnight at 37° C. with 5% CO2. Visible bacterial growth is finally quantified by unaided eye.
The MAC of each compound is derived from the experiment in presence of colistin and is defined as the minimal concentration of compound for which no bacterial visible growth is observed.

S. aureus strain 54.316 = experiment: Colistin activity on S. aureus; assay type: cell-based
Description: (§1) The peptide used was colistin which mimicks the effect of antibacterial cationic peptide of innate immunity. In common with other polymixins, colistin is rapidly bactericidal and exerts its effect by acting as a cationic detergent, causing disruption of the integrity of the bacterial cell membrane, with leakage of intracellular contents and cell death.

[3] = system: dltA defective mutant of S. agalactiae; experiment: Colistin activity on dltA defective mutant; assay type: cell-based
Description: as §1

[4] = system: S. agalactiae strain NEM316; experiment: Colistin activity on wild type S. agalactiae; assay type: cell-based
Description: as §1

[5] = S. agalactiae wt strain, absence of colistin, overnight, no visible growth, read-out: MIC SAG wt

Compound | MIC (S. agalactiae NEM316 WT [1]; [5]) | IC50 (DltA enzyme) | MAC (S. agalactiae NEM316 WT [2]) | also measured
CNC(=O)c1cc(-c2cnc3c(NCCCO)nc4cc(C(F)(F)F)ccc4n23)[nH]n1 [Example 50, 5-{4-[(3-hydroxypropyl)amino]-7-(trifluoromethyl)imidazo[1,2-a]quinoxalin-1-yl}-N-methyl-1H-pyrazole-3-carboxamide] | > 32 µg/mL | 38 nM | 8 µg/mL | 
OCCCNc1nc2cc(C(F)(F)F)ccc2n2c(-c3cccc(CO)c3)cnc12 [Example 16, 3-({1-[3-(hydroxymethyl)phenyl]-7-(trifluoromethyl)imidazo[1,2-a]quinoxalin-4-yl}amino)propan-1-ol] | > 32 µg/mL | 520 nM | 8 µg/mL | 
Cc1cc(-c2cnc3c(NCCCO)nc4cc(C(F)(F)F)ccc4n23)[nH]n1 [Example 39, 3-({1-[3-methyl-1H-pyrazol-5-yl]-7-(trifluoromethyl)imidazo[1,2-a]quinoxalin-4-yl}amino)propan-1-ol] | > 32 µg/mL | 13.5 nM | 8 µg/mL | 
colistin |  |  |  | MIC (S. aureus strain 54.316): ≥ 1024 µg/mL; dose that can inhibit totally the growth [3]: 32 µg/mL; MIC ([4]; S. agalactiae strain NEM316 wild type): ≥ 1024 µg/mL; effect on the wild type strain growth ([4]; colistin 32 μg/ml, S. agalactiae wild type): without effect
OCCCNc1nc2cc(C(F)(F)F)ccc2n2c(-c3cnn[nH]3)cnc12 [Example 35, 3-{[1-(1H-1,2,3-triazol-5-yl)-7-(trifluoromethyl)imidazo[1,2-a]quinoxalin-4-yl]amino}propan-1-ol] |  | 270 nM | 2 µg/mL | MIC (S. agalactiae NEM316 WT [1]; read-out: MIC SAG wt (μg/ml)): > 32 µg/mL
OCCCNc1nc2cc(OC(F)(F)F)ccc2n2c(-c3ccn[nH]3)cnc12 [Example 51, 3-{[1-(1H-pyrazol-5-yl)-7-(trifluoromethoxy)imidazo[1,2-a]quinoxalin-4-yl]amino}propan-1-ol] | > 32 µg/mL | 9 nM | 2 µg/mL | 
CC(C)(C)c1cc(-c2cnc3c(NCCCO)nc4cc(C(F)(F)F)ccc4n23)[nH]n1 [Example 36, 3-({1-[3-tert-butyl-1H-pyrazol-5-yl]-7-(trifluoromethyl)imidazo[1,2-a]quinoxalin-4-yl}amino)propan-1-ol] | > 32 µg/mL | 49 nM | 4 µg/mL | 
OCCCNc1nc2cc(C(F)(F)F)ccc2n2c(-c3ccc(N4CCOCC4)cc3)cnc12 [Example 14, 3-{[1-(4-N-morpholinophenyl)-7-(trifluoromethyl)imidazo[1,2-a]quinoxalin-4-yl]amino}propan-1-ol] |  | 460 nM |  | 
Cc1n[nH]c(-c2cnc3c(NCCCO)nc4cc(OC(F)(F)F)ccc4n23)n1 [Example 55] |  | 25 nM |  | 
OCCCNc1nc2cc(C(F)(F)F)ccc2n2c(CNCc3ccccc3)cnc12 [Example 44, 3-({1-[(benzylamino)methyl]-7-(trifluoromethyl)imidazo[1,2-a]quinoxalin-4-yl}amino)propan-1-ol] |  | 6100 nM |  | 
COc1ccc(-n2cnc3c(NCCCO)nc4cc(C(F)(F)F)ccc4c32)cc1 [Example 24, 3-[1-(4-Methoxy-phenyl)-7-trifluoromethyl-1H-imidazo[4,5-c]quinolin-4-ylamino]-propan-1-ol] |  | 3900 nM |  | 
CCOC(=O)c1cc(-c2cnc3c(NCCCO)nc4cc(C(F)(F)F)ccc4n23)[nH]n1 [Example 47, 5-[4-(3-Hydroxy-propylamino)-7-trifluoromethyl-imidazo[1,2-a]quinoxalin-1-yl]-1H-pyrazole-3-carboxylic acid ethyl ester] | > 32 µg/mL | 35 nM | 8 µg/mL | 
O=Cc1cnc2c(NCCCO)nc3cc(C(F)(F)F)ccc3n12 [Example 41, 4-[(3-hydroxypropyl)amino]-7-(trifluoromethyl)imidazo[1,2-a]quinoxaline-1-carbaldehyde] |  | 4600 nM |  | 
OCCCNc1nc2cc(-c3ccccc3C(F)(F)F)ccc2n2c(-c3ccn[nH]3)cnc12 [Example 54, 3-{[1-(1H-pyrazol-5-yl)-7-(2-[trifluoromethyl]phenyl)imidazo[1,2-a]quinoxalin-4-yl]amino}propan-1-ol] |  | 22 nM |  | 

Source: patent publication US8513250B2 (Laboratoire Biodim, priority 2007, dated 2013)
